This passage reports CC50 results from paper PMC6792352, “Limited Chemical Structural Diversity Found to Modulate Thyroid Hormone Receptor in the Tox21 Chemical Library” (Environmental Health Perspectives, 2019).

Counter-ions that a name gives are not always drawn.

This data set can be described thus: in vitro. The note with it: rat, gh3-tre-luc cells.

By CC50 is commonly meant the concentration giving 50% cytotoxicity. Read a high CC50 as lower toxicity to the cells. Take `Cc1ccc(C(=O)O)o1` [5-Methyl-2-furancarboxylic acid]: the CC50 at 24 h (AC50 (uM) modified / 1000) was > 90 µM.

For `CCOP(=O)(Sc1ccccc1)Sc1ccccc1` [Edifenphos], the CC50 at 24 h (AC50 (uM) modified / 1000, Tox21_110001=Tox21_301355, viability, 1 nM T3 present, 24 h) is > 90 µM. For the compound `C[C@H](Cc1ccc(OCC(=O)O)cc1)NC[C@H](O)c1csc(C(F)(F)F)n1` [CP-114271], for the setting “AC50 (uM) modified / 1000”, the CC50 at 24 h was > 90 µM. `CCCCN1C(=O)c2ccccc2C1=O` [2-Butyl-1H-isoindole-1,3(2H)-dione]: the CC50 at 24 h (AC50 (uM) modified / 1000) was > 90 µM. Turning to `C=CC(OCC)OCC` [Acrolein diethylacetal], the CC50 at 24 h (AC50 (uM) modified / 1000) is > 90 µM. For `CCCCCCCC/C=C\CCCCCCCCCCCC(=O)O` [(13Z)-Docos-13-enoic acid], where the note is “AC50 (uM) modified / 1000”, the CC50 at 24 h is > 90 µM. As for `Cc1ccccc1C=O` [2-Tolualdehyde], under “AC50 (uM) modified / 1000”, the CC50 at 24 h was > 90 µM. Turning to `Nc1ncnc2nc[nH]c12` [Adenine], the CC50 at 24 h (AC50 (uM) modified / 1000) was > 90 µM. Regarding `COc1ccc(N)c([N+](=O)[O-])c1` [4-Methoxy-2-nitroaniline], the CC50 at 24 h (AC50 (uM) modified / 1000) is > 90 µM. Regarding `Nc1n[nH]c(N)n1` [Guanazole], the CC50 at 24 h (AC50 (uM) modified / 1000) is > 90 µM.

With `CC(=O)OC/C=C(\C)CCC=C(C)C` [Geranyl acetate], the CC50 at 24 h (AC50 (uM) modified / 1000) is > 90 µM. Same read-out and setting: next, `Cc1ccsc1C(=CCCN1CCC[C@@H](C(=O)O)C1)c1sccc1C` [Tiagabine hydrochloride]: > 50 µM; `O=C1c2c(O)ccc(Nc3ccc(CCO)cc3)c2C(=O)c2c([N+](=O)[O-])ccc(O)c21` [C.I. Disperse Blue 27]: 63.1 µM; `Nc1cc2c3c(c1)C(c1ccccc1)=N[C@@H](NC(=O)c1cccnc1)C(=O)N3CC2` [CI-1044]: > 90 µM. On to `NC[C@H]1O[C@H](O[C@H]2[C@H](O)[C@@H](O[C@H]3O[C@H](CO)[C@@H](O)[C@H](N)[C@H]3O)[C@H](N)C[C@@H]2N)[C@H](N)[C@@H](O)[C@@H]1O` [Bekanamycin sulfate], for which the CC50 at 24 h (AC50 (uM) modified / 1000) was > 50 µM. `CC(C)(C)c1ccccc1O` [2-tert-Butylphenol]: the CC50 at 24 h (AC50 (uM) modified / 1000) was > 90 µM. Consider `CN(C)[C@@H]1C(O)=C(C(N)=O)C(=O)[C@@]2(O)C(O)=C3C(=O)c4c(O)ccc(Cl)c4[C@@H](O)[C@H]3C[C@@H]12` [Demeclocycline hydrochloride], for which, under “AC50 (uM) modified / 1000”, the CC50 at 24 h was > 50 µM. For the compound `CC[C@H](C)[C@@H]1NC(=O)[C@H](Cc2ccc(O)cc2)NC(=O)[C@@H](N)CSSC[C@@H](C(=O)N2CCC[C@H]2C(=O)N[C@@H](CC(C)C)C(=O)NCC(N)=O)NC(=O)[C@H](CC(N)=O)NC(=O)[C@H](CCC(N)=O)NC1=O` [Oxytocin acetate], the CC50 at 24 h (AC50 (uM) modified / 1000) is > 50 µM. As to `CC(C)=CCCC(C)=CC#N` [Citralva], for the setting “AC50 (uM) modified / 1000”, the CC50 at 24 h was > 90 µM. Regarding `CCCC(=O)Cl` [Butyryl chloride], under “AC50 (uM) modified / 1000, Tox21_110001=Tox21_200294, viability, 1 nM T3 present, 24 h”, the CC50 at 24 h is > 90 µM. `CCC(N)Cc1c[nH]c2ccccc12` (stereo not drawn) [Etryptamine acetate]: the CC50 at 24 h (AC50 (uM) modified / 1000, Tox21_110001=Tox21_112820, viability, 1 nM T3 present, 24 h) is > 100 µM.

`C=CC(=O)OCCOCCOCC` [2-(2-Ethoxyethoxy)ethyl prop-2-enoate]: where the note is “AC50 (uM) modified / 1000”, the CC50 at 24 h is > 90 µM.

For the compound `O=C(C(Cl)Cl)N1CCOC12CCCCC2` [MON-4660], where the note is “AC50 (uM) modified / 1000”, half-maximal cytotoxicity (CC50 at 24 h) was put at 62.3 µM. Regarding `C=C(C)C(=O)OCCOCCOCCOCCOC(=O)C(=C)C` [Tetraethyleneglycol dimethacrylate], where the note is “AC50 (uM) modified / 1000”, the CC50 at 24 h was > 90 µM. On to `CCn1cc[n+](C)c1` [1-Ethyl-3-methylimidazolium thiocyanate], for which the CC50 at 24 h (AC50 (uM) modified / 1000) was > 90 µM.

The compound `Cc1nc(Nc2ncc(C(=O)Nc3c(C)cccc3Cl)s2)cc(N2CCN(CCO)CC2)n1` [Dasatinib] came in with a CC50 at 24 h (AC50 (uM) modified / 1000) of 15.8 µM.

In the case of `CCC(=O)O[C@]1(C(=O)CCl)[C@@H](C)C[C@H]2[C@@H]3C[C@H](F)C4=CC(=O)C=C[C@]4(C)[C@@]3(F)[C@@H](O)C[C@@]21C` [Halobetasol propionate], the CC50 at 24 h (AC50 (uM) modified / 1000) was > 50 µM. For the compound `CCCCNP(N)(N)=S` [N-Butylphosphorothioic triamide], the CC50 at 24 h (AC50 (uM) modified / 1000, Tox21_110001=Tox21_302015, viability, 1 nM T3 present, 24 h) is > 90 µM. For the compound `CCCCCCCC(=O)N(C)C` [N,N-Dimethyloctanamide], the CC50 at 24 h (AC50 (uM) modified / 1000) was > 90 µM. For `O=[N+]([O-])c1cc(Cl)c(Cl)c(Cl)c1` [3,4,5-Trichloronitrobenzene], for the setting “AC50 (uM) modified / 1000”, the CC50 at 24 h was > 90 µM.

For `Oc1ccc(C2(c3ccc(O)cc3)c3ccccc3-c3ccccc32)cc1` [4,4'-(9H-Fluorene-9,9-diyl)diphenol], the CC50 at 24 h (AC50 (uM) modified / 1000) came out at 28.7 µM. For `CCCCCCCCCC/C=C/C1CC(=O)OC1=O` (stereo not drawn) [3-(Dodecenyl)dihydro-2,5-furandione], under “AC50 (uM) modified / 1000”, the CC50 at 24 h was > 90 µM. For the compound `C/C=C(\C)C(=O)OCCc1ccccc1` [Phenethyl tiglate], where the note is “AC50 (uM) modified / 1000”, the CC50 at 24 h was > 90 µM.

`CC(=Cc1ccccc1)[N+](=O)[O-]` [(2-Nitro-1-propenyl)benzene] yielded a CC50 at 24 h (AC50 (uM) modified / 1000) of 10.3 µM.

As to `Cc1c(Cn2ccnc2)c2ccccc2n1CCC(=O)O` [Dazmegrel], the CC50 at 24 h (AC50 (uM) modified / 1000) was > 50 µM.

With `N#CC(C#N)=C(C#N)C#N` [Tetracyanoethylene], the CC50 at 24 h (AC50 (uM) modified / 1000) was > 100 µM. The same measure, in the same setting: the same measure for `CC(C(=O)O)c1ccc(/C=C2\CCCCC2=O)cc1` (stereo not drawn) [Pelubiprofen]: > 50 µM; for `COc1c(C)c2c(c(O)c1C/C=C(\C)CCC(=O)OCCN1CCOCC1)C(=O)OC2` [Mycophenolate mofetil]: 1.07 µM. `COc1cc(C[C@@H](C)N)c(OC)cc1Br` [R-(-)-2,5-Dimethoxy-4-bromoamphetamine hydrochloride] showed a CC50 at 24 h (AC50 (uM) modified / 1000) of 56.1 µM. Same read-out and setting: next, `Cc1cc2c3c(c1)C(c1ccccc1)=N[C@@H](NC(=O)c1ccncc1)C(=O)N3CC2` [CI-1018]: > 90 µM; `NS(=O)(=O)c1cc(Cl)c(Cl)c(S(N)(=O)=O)c1` [Dichlorphenamide]: > 20 µM. Turning to `CCCCCCCC/C=C\CCCCCCCC(=O)OCC` [Ethyl oleate], where the note is “AC50 (uM) modified / 1000”, the CC50 at 24 h was > 90 µM. Take `COc1cc2nc(N(C)CCCNC(=O)C3CCCO3)nc(N)c2cc1OC` (stereo not drawn) [Alfuzosin hydrochloride]: the CC50 at 24 h (AC50 (uM) modified / 1000) was > 20 µM. The same measure, in the same setting: next, `COc1ccc(-c2ccccc2)cc1NNC(=O)OC(C)C` [Bifenazate]: 87.4 µM; `Cc1ccc(Cl)cc1Cl` [2,4-Dichlorotoluene]: > 90 µM; `Cc1ccc(C(=O)c2cc(O)c(O)c([N+](=O)[O-])c2)cc1` [Tolcapone]: 72.4 µM. The same measure, in the same setting: the same measure for `Cn1c(CCCC(=O)O)nc2cc(N(CCCl)CCCl)ccc21` [Bendamustine]: > 50 µM; for `CCCCP(CCCC)CCCC` [Tributylphosphine]: > 90 µM.

With `CC1(C)C(=O)C(C)(C)C1=O` [2,2,4,4-Tetramethylcyclobutane-1,3-dione], where the note is “AC50 (uM) modified / 1000”, the CC50 at 24 h is > 90 µM. In the case of `CNCc1ccccc1` [N-Methylbenzylamine hydrochloride], for the setting “AC50 (uM) modified / 1000”, the CC50 at 24 h was > 50 µM. For the setting “AC50 (uM) modified / 1000”, `O=C(Nc1ccccc1)OCC(CN1CCCCC1)OC(=O)Nc1ccccc1` (stereo not drawn) [Diperodon hydrochloride] returned a CC50 at 24 h of 10.5 µM. Take `CCOC(=O)c1cnc2c(cnn2CC)c1NN=C(C)C` [Etazolate hydrochloride]: the CC50 at 24 h (AC50 (uM) modified / 1000) is > 50 µM. `BrCCCCBr` [1,4-Dibromobutane]: where the note is “AC50 (uM) modified / 1000, Tox21_110001=Tox21_301070, viability, 1 nM T3 present, 24 h”, the CC50 at 24 h was > 90 µM.

As to `CC(C)(C#N)C(C)(C)C#N` [Tetramethylsuccinonitrile], the CC50 at 24 h (AC50 (uM) modified / 1000, Tox21_110001=Tox21_200573, viability, 1 nM T3 present, 24 h) is > 90 µM. As for `O=S(O)CNc1ccc(S(=O)(=O)c2ccc(NCS(=O)O)cc2)cc1` [Adesulfone sodium], where the note is “AC50 (uM) modified / 1000”, the 50% cytotoxic concentration (CC50) at 24 h is > 50 µM. As to `CC(C)c1ccc2oc3nc(N)c(C(=O)O)cc3c(=O)c2c1` [Amlenanox], under “AC50 (uM) modified / 1000”, the CC50 at 24 h is > 50 µM. Still for that read-out and setting: the same measure for `c1ccc(SSc2ccccc2)cc1` [Diphenyl disulfide]: > 90 µM. As to `CCOC(=O)Cc1cccc2ccccc12` [Ethyl 1-naphthaleneacetate], the CC50 at 24 h (AC50 (uM) modified / 1000) was > 90 µM. Regarding `CCCCNC1CC(C)(C)NC(C)(C)C1` [N-Butyl-2,2,6,6-tetramethylpiperidin-4-amine], the CC50 at 24 h (AC50 (uM) modified / 1000) is > 90 µM. As for `C1=CCC2CC=CC2C1` (stereo not drawn) [3a,4,7,7a-Tetrahydroindene], the CC50 at 24 h (AC50 (uM) modified / 1000) was > 90 µM. With `CCNc1nc(NC(C)CC)nc(OC)n1` (stereo not drawn) [Secbumeton], the half-maximal cytotoxic concentration (CC50) at 24 h (AC50 (uM) modified / 1000) was > 90 µM. `CC(C)(O)C(Cl)(Cl)Cl` [1,1,1-Trichloro-2-methyl-2-propanol]: the CC50 at 24 h (AC50 (uM) modified / 1000) is > 50 µM. With `CCC1(CO)COCOC1` [(5-Ethyl-1,3-dioxan-5-yl)methanol], for the setting “AC50 (uM) modified / 1000”, the CC50 at 24 h is > 90 µM.

As for `CCCCC(CC)COCCC#N` (stereo not drawn) [3-((2-Ethylhexyl)oxy)propionitrile], the CC50 at 24 h (AC50 (uM) modified / 1000) is > 90 µM.

Turning to `CC1CCC(C(C)CS)CC1S` (stereo not drawn) [Dipentenedimercaptan], the CC50 at 24 h (AC50 (uM) modified / 1000) was > 90 µM.

Turning to `CCCCCCCCCCC=CC#N` [Tridec-2-enenitrile], the cytotoxic concentration (CC50) at 24 h (AC50 (uM) modified / 1000) is > 90 µM.

On to `CC(C)Cc1ccc(CC(=O)O)cc1` [Ibufenac], for which the half-maximal cytotoxic concentration (CC50) at 24 h (AC50 (uM) modified / 1000) was > 50 µM. With `CCOC(=O)Nc1ccc(NCc2ccc(F)cc2)nc1N` [Flupirtine maleate], the CC50 at 24 h (AC50 (uM) modified / 1000) was > 50 µM. For the compound `CC1(C)SC(C)(C)SC(C)(C)S1` [Trithioacetone], the CC50 at 24 h (AC50 (uM) modified / 1000) is > 90 µM. Regarding `NCCOS(=O)(=O)O` [2-Aminoethyl hydrogen sulfate], for the setting “AC50 (uM) modified / 1000, Tox21_110001=Tox21_302045, viability, 1 nM T3 present, 24 h”, the CC50 at 24 h was > 90 µM.

`O=C(COCCOCCOCC(=O)Nc1c(I)cc(I)c(C(=O)O)c1I)Nc1c(I)cc(I)c(C(=O)O)c1I` [Biliscopin]: the CC50 at 24 h (AC50 (uM) modified / 1000) is > 50 µM. In the case of `C[C@@H](O)[C@@H]1NC(=O)[C@H](CCCCN)NC(=O)[C@@H](Cc2c[nH]c3ccccc23)NC(=O)[C@H](Cc2ccccc2)NC(=O)[C@@H](NC(=O)[C@H](N)Cc2ccccc2)CSSC[C@@H](C(=O)N[C@H](CO)[C@@H](C)O)NC1=O` [Octreotide], where the note is “AC50 (uM) modified / 1000”, the CC50 at 24 h was > 50 µM.
